In US20240122893A1 (priority 2021, published 2024):
Structures can show the parent of a compound that is named as a salt. Where two headings read alike, the source gives them in different places.

Key:
SARS-CoV-2 [1] = conditions: treatment of cells with NRF2 agonists; cited from earlier work
HCoV-OC43 [2] = test: microbe, parasite or virus in culture; format: cell-based, Human coronavirus OC43
SARS-CoV-2 [3] = test: CPE inhibition assay, SARS-CoV-2 strains in Vero C1008 cells; format: cell-based
SARS-CoV-2/USA/WI1/2020 [4] = conditions: for protein concentration in bronchoalveolar lavage (BAL), measure of lung injury: 6 days post-infection; for SARS-CoV-2 spike protein distribution in the lungs: vs infected untreated animals
SARS-CoV-2/USA/WI1/2020 [5] = system: SARS-CoV-2/USA/WI1/2020
Experimental: Flow cytometry: Lungs were minced and incubated at 37° C. in an enzyme cocktail of RPMI containing 2.4 mg/ml collagenase I and 20 μg/ml DNase (Invitrogen), then mashed through a 70-μm nylon cell strainer (BD Falcon). […] For analysis immediately ex vivo, cells were washed once in PBS and immediately stained for viability with Biolegend Live/Dead Zombie NIR Fixable Viability Dye and Fc Block for 10 min at room temperature. Cell surface staining was performed in 100 uL of 20% BD Horizon™ Brilliant Stain Buffer+ PBS with surface stain antibody cocktail for 20 min at room temperature. Cells were fixed and permeabilized with eBioscience™ FoxP3/Transcription Factor Staining kit 1× Fixation/Permeabilization reagent overnight at 4° C. Cells were washed with 1× Permeabilization/Wash buffer. Intracellular staining (ICS) was performed in 100 uL 1× Permeabilization/Wash buffer with ICS antibody cocktail for 45 min at room temperature. Cells were washed once with Permeabilization/Wash buffer then resuspended in Permeabilization/Wash buffer for acquisition by flow. Samples were run on a 3 laser Cytek Aurora spectral flow cytometer. FCS files were analyzed using Flowjo v10 (10.6.2.) software.
Flow cytometry. Lungs were minced and incubated at 37° C. in an enzyme cocktail of RPMI containing 2.4 mg/mi collagenase I and 20 μg/ml DNase (Invitrogen), then mashed through a 70-μm nylon cell strainer (BD Falcon). […] For analysis immediately ex vivo, cells were washed once in PBS and immediately stained for viability with Biolegend Live/Dead Zombie NIR Fixable Viability Dye and Fc Block for 10 min at room temperature. Cell surface staining was performed in 100 μL of 20% BD Horizon™ Brilliant Stain Buffer+ PBS with surface stain antibody cocktail for 20 min at room temperature. Cells were fixed and permeabilized with eBioscience™ FoxP3/Transcription Factor Staining kit 1× Fixation/Permeabilization reagent overnight at 4° C. Cells were washed with 1× Permeabilization/Wash buffer. Intracellular staining (ICS) was performed in 100 μL 1× Permeabilization/Wash buffer with ICS antibody cocktail for 45 min at room temperature. Cells were washed once with Permeabilization/Wash buffer then resuspended in Permeabilization/Wash buffer for acquisition by flow. […] For the myeloid flow cytometry functional staining, the cells were incubated with protein transport inhibitors for 4 h. Samples were run on a 3 laser Cytek Aurora spectral flow cytometer or a FACSAria II spectral flow cytometer (BD). FCS files were analyzed using Flowjo v10.6.2 software (BD). […] High-dimensional unbiased analysis of cell phenotypes was performed using Flowjo plugins DownSample v3 and UMAP.

MRC-5 cells = conditions: human
SARS-CoV-2 [6] = test: organism not typed; conditions: Caco-2, read-out: IC50, reduction of viral RNA
Experimental: vRNA determination: Zymo Quick-RNA Viral 96 Kit (Zymo Research) was used to isolate RNA from cell supematants according to the manufacturer's protocol. cDNA synthesis was performed using qScript cDNA Supermix containing randomhexamers and oligo-dT primers following the manufacture's protocol (Quanta Biosciences). Real-time PCR was performed in technical triplicate for each sample using TaqMan Fast Advanced Master Mix (Applied Biosystems) on a StepOne Plus Real Time PCR machine (Applied Biosystems). […] The cycling parameters were as follows: (i) 2 min at 50° C.; (ii) 2 min at 95° C.; and (iii) 45 cycles at 95° C. for 3s and 55° C. for 30 s. Molecular standard curves were generated using serial dilutions of a plasmid containing the complete SARS-CoV-2N gene (Integrated DNA Technologies, Catalog #10006625).
Viral RNA determination. Zymo Quick-RNA Viral 96 Kit (Zymo Research) was used to isolate RNA from cell supematants according to the manufacturer's protocol. cDNA synthesis was performed using qScript cDNA Supermix containing random hexamers and oligo-dT primers following the manufacture's protocol (Quanta Biosciences). Real-time quantitative reverse transcription
PCR (RT-qPCR) was performed in technical triplicate for each sample using TaqMan Fast Advanced Master Mix (Applied Biosystems) on a StepOne Plus Real Time PCR machine (Applied Biosystems). […]

[7] = cited from earlier work
HCoV-OC43 [8] = test: microbe, parasite or virus in culture; conditions: Betacoronavirus 1, OC43, MRC5, read-out: IC50, median inhibitory concentration
[9] = 30 mg/kg daily oral gavage, vs untreated infected controls
[10] = after PMA/ionomycin stimulation

Compound: C=C(CC(=O)OCCCCCCCC)C(=O)O [4-octyl-itaconate]
- replication of SARS-CoV-2 in vitro (SARS-CoV-2 [1]): inhibited replication

Compound: CCC(CC)COC(=O)[C@H](C)N[P@](=O)(OC[C@H]1O[C@@](C#N)(c2ccc3c(N)ncnn23)[C@H](O)[C@@H]1O)Oc1ccccc1 [RDV, remdesivir, reference compound]
- TD50, median cytotoxic dose (Vero C1008 cells; Vero C1008, drug added 1-2 h before virus (HCoV-OC43 assay)): 142 µM
- IC50 (HCoV-OC43 [2]; Betacoronavirus 1, OC43, Vero C1008, drug added 1-2 h before virus, read-out: IC50, median inhibitory concentration): 22 µM
- IC50 (SARS-CoV-2 [3]; Severe acute respiratory syndrome coronavirus 2, Vero C1008, SARS-CoV-2, FIG. 2E, Vero C1008, drug 1 h before virus, read-out: IC50): 4 µM
- IC50 (SARS-CoV-2 [3]; Severe acute respiratory syndrome coronavirus 2, Vero C1008, four strains of SARS-CoV-2 (Example 1), read-out: IC50): 4 to 9 µM

Compound: C[S+]([O-])CCCCN=C=S (centres unmarked) [SFN, sulforaphane]
- bodyweight loss, less than infected untreated controls (SARS-CoV-2/USA/WI1/2020 [4]; 30 mg/kg daily oral gavage from one day before inoculation, day 6 post inoculation): 7.5%
- protein concentration in bronchoalveolar lavage (BAL), measure of lung injury (SARS-CoV-2/USA/WI1/2020 [4]; [9]): significantly lower
- protein concentration in bronchoalveolar lavage (BAL), measure of lung injury (SARS-CoV-2/USA/WI1/2020 [4]; 30 mg/kg daily oral gavage, vs untreated infected controls, listed as sulforaphane): lower
- reduction in lung viral load, total SARS-CoV-2 N protein copies, not normalized to Pol2Ra (SARS-CoV-2/USA/WI1/2020 [4]; 30 mg/kg daily oral gavage, P=0.1308): 1.46 log
- weight loss compared to controls (SARS-CoV-2/USA/WI1/2020 [4]; 30 mg/kg daily oral gavage, day 6 post inoculation): lost significantly less weight
- reduction in lung viral load, SARS-CoV-2 N protein copies normalized to Pol2Ra (SARS-CoV-2/USA/WI1/2020 [4]; 30 mg/kg daily oral gavage, vs infected untreated controls): 1.5 log
- viral burden in BAL / alveolar fluid (qPCR) (SARS-CoV-2/USA/WI1/2020 [4]; [9]): significantly lower
- histopathology score of lung inflammation (SARS-CoV-2/USA/WI1/2020 [4]; 30 mg/kg daily, untreated controls 6/16): 1/16
- lung viral load, treated vs controls (Example 1) (SARS-CoV-2/USA/WI1/2020 [4]; daily oral gavage from one day before inoculation): no statistically significant differences
- reduction of viral replication in the lungs (SARS-CoV-2/USA/WI1/2020 [4]; prophylactic SFN treatment): 1.5 orders of magnitude
- SARS-CoV-2 spike protein distribution in the lungs (SARS-CoV-2/USA/WI1/2020 [4]): focal distribution
- SARS-CoV-2 spike protein distribution in the lungs (SARS-CoV-2/USA/WI1/2020 [4]; listed as sulforaphane): smaller area
- pulmonary pathology (H&E lung sections) (SARS-CoV-2/USA/WI1/2020 [4]; vs infected untreated mice): lower degree of pulmonary pathology
- B cells in the spleen and Ly6G+ neutrophils in the lung (SARS-CoV-2/USA/WI1/2020 [5]; Example 1): significantly higher expansion
- CCR2 expression on alveolar macrophages (SARS-CoV-2/USA/WI1/2020 [5]; Example 1): reduced
- CD86 on lung-resident macrophages (SARS-CoV-2/USA/WI1/2020 [5]; Example 1): increased
- IL-10 and TGFβ produced by macrophages (SARS-CoV-2/USA/WI1/2020 [5]; Example 1): increased
- Ki67 and MHCII on CD8 T cells immediately ex vivo (SARS-CoV-2/USA/WI1/2020 [5]; Example 1): upregulation
- PD-L1 expression on macrophages (SARS-CoV-2/USA/WI1/2020 [5]; Example 1): lower levels
- frequency of B cells, cytotoxic NK cells and CD8 T cells (SARS-CoV-2/USA/WI1/2020 [5]; Example 1): increased frequency
- expression of activation markers CD80, CD86, PD-L1, MHC-II on lung alveolar and interstitial macrophages (SARS-CoV-2/USA/WI1/2020 [5]; Example 2): lower expression
- PD1, MHC-II and Ki-67 on lung CD8+ and CD4+ T cells, directly ex vivo (SARS-CoV-2/USA/WI1/2020 [5]; Example 2, P<0.05): significantly decreased
- frequencies of lung alveolar and interstitial macrophages producing IL-10, IL-1β, TNF-α, TGF-β (SARS-CoV-2/USA/WI1/2020 [5]; Example 2, P<0.05): significantly lower frequencies
- infection-induced increase of IL-1β in alveolar macrophages (SARS-CoV-2/USA/WI1/2020 [5]; P<0.0001): abrogated
- CPT1a+VDAC+ myeloid cells in lung (SARS-CoV-2/USA/WI1/2020 [5]; P=0.01): significantly decreased
- percentage of monocytes and CD11c+ dendritic cells out of total CD45+ immune cells in the lungs (SARS-CoV-2/USA/WI1/2020 [5]; P=0.01): significantly decreased
- IFN-γ and IL-10 from lung CD4+ T cells (SARS-CoV-2/USA/WI1/2020 [5]; [10]): lower levels
- frequency of IL-4 and IL-17 in CD4+ T cells (SARS-CoV-2/USA/WI1/2020 [5]; [10]): not significantly altered
- TNF-α in alveolar macrophages and IFN-γ in T cells (SARS-CoV-2/USA/WI1/2020 [5]; mouse, in vivo): reduction
- recruitment of myeloid cells (monocytes, dendritic cells) into the lungs (SARS-CoV-2/USA/WI1/2020 [5]; vs infected untreated mice): significantly reduced
- TD50, median cytotoxic dose, range over assays (Vero C1008 cells; African green monkey, human): 73 to 89 µM
- IC50 (HCoV-OC43 [2]; Betacoronavirus 1, OC43, Vero C1008, 24 h, Vero C1008, established infection, drug added 24 h after virus, read-out: IC50, median inhibitory concentration): 18 µM
- IC50 (HCoV-OC43 [2]; Betacoronavirus 1, OC43, Vero C1008, Vero C1008, drug 24 h before virus, drug washed out and then virus added, read-out: IC50, median inhibitory concentration): 21 µM
- IC50 (HCoV-OC43 [2]; Betacoronavirus 1, OC43, Vero C1008, read-out: IC50, median inhibitory concentration, Vero C1008, drug added 1-2 h before virus): 10 µM
- TD50, median cytotoxic dose (MRC-5 cells): 83 µM
- IC50 (SARS-CoV-2 [6]): 2.4 µM
- tolerability ([7]; SFN-rich broccoli sprouts corresponding to 50 to 400 μmol SFN daily): well tolerated without clinically significant adverse effects
- elimination from plasma ([7]; in vivo): rapidly eliminated from plasma
- IC50 (HCoV-OC43 [8]): 18 µM
- IC50 (SARS-CoV-2 [3]; 614G+ clinical strain USA/DCHP-7/2020 (DC)): 29 µM
- IC50 (SARS-CoV-2 [3]; 614G+ clinical strain USA/MDHP-20/2020 (MD)): 28 µM
- IC50 (SARS-CoV-2 [3]; Severe acute respiratory syndrome coronavirus 2, Vero C1008, 614G+ clinical strain USA/DCHP-7/2020 (DC)): 51 µM
- IC50 (SARS-CoV-2 [3]; Severe acute respiratory syndrome coronavirus 2, Vero C1008, 614G+ clinical strain USA/MDHP-20/2020 (MD)): 48 µM
- IC50 (SARS-CoV-2 [3]; Severe acute respiratory syndrome coronavirus 2, Vero C1008, 24 h, SARS-CoV-2-Wuhan-Hu-1, established infection, drug added 24 h after virus, read-out: IC50, median inhibitory concentration): 13 µM
- IC50 (SARS-CoV-2 [3]; Severe acute respiratory syndrome coronavirus 2, Vero C1008, both reference strains, Wuhan-Hu-1 and USA-WA1/2020 (Example 1)): 15 to 17 µM
- IC50 (SARS-CoV-2 [3]; Severe acute respiratory syndrome coronavirus 2, Vero C1008, read-out: IC50, median inhibitory concentration, SARS-CoV-2-Wuhan-Hu-1, Vero C1008, drug 1-2 h before virus): 12 µM
- IC50 (SARS-CoV-2 [3]; Severe acute respiratory syndrome coronavirus 2, Vero C1008, reference strain USA-WA1/2020, drug 1 h before virus (Example 2)): 31 µM

Compound: COC(=O)/C=C/C(=O)OC [dimethyl fumarate]
- replication of SARS-CoV-2 in vitro (SARS-CoV-2 [1]): inhibited replication
